Data as given in publication PMC5059758, “Structural characterization of antibiotic self-immunity tRNA synthetase in plant tumour biocontrol agent” (Nature Communications, 2016).

Assays:
LeuRSAt [1] = target: T1, LeuRSAt (Agrobacterium tumefaciens, UniProt Q8UBV2); assay: ATP/PPi exchange assay (amino acid activation), LeuRSAt; type: biochemical, A. tumefaciens; details: 28 °C, pH 7.4
Procedure: The formation of Leu-AMP by ATP/PPi exchange assays was performed as described earlier. Briefly, the reaction buffer contained 50 mM HEPES buffer (pH 7.4), 20 mM KCl, 10 mM MgCl2, 500 μM L-leucine, 4 mM ATP, 1 mM tetrasodium pyrophosphate (NaPPi), 10 μCi/mmol [^32P] NaPPi and 1 μM bovine serum albumin (BSA). The reaction was initiated by addition of 1–4 nM of active enzyme and incubated at 28 °C. Aliquots (5 μl each) were collected over 30 min and quenched in a 10% charcoal slurry containing 0.5% HCl and 50 μl of 200 mM sodium pyrophosphate in 1 M HCl. Liquid scintillation counting was then used to measure the amount of [^32P]-PPi incorporation into ATP that was adsorbed onto the charcoal.

[2] = test system: LeuRSAt (leucyl-tRNA synthetase); details: aminoacylation, substrate, 28 °C, pH 7.4; cited from earlier work
wt AgnB2 (LeuRS) [3] = target: T2, wt AgnB2 (LeuRS) (Agrobacterium radiobacter, UniProt B9JQP8); assay: Aminoacylation assay, wt AgnB2; details: pH 7.4
Procedure: Aminoacylation activities of AgnB2, LeuRSAt and their mutants were measured in 50 mM HEPES buffer (pH 7.4) containing 20 mM KCl, 25 mM MgCl2, 25 mM β-ME, 4 mM ATP, 500 μM [3,4,5-^3H] L-leucine (20 μCi/mmole), 5 μg/ml inorganic pyrophosphatase, 1 μM BSA, 10 μM of active in vitro transcribed tRNA^Leu and enzymes in the range of 2–8 nM. Reactions were pre-incubated with or without substrate and/or inhibitor and then carried out at 28 °C (37 °C-LeuRSHp). Aliquots of the reaction (5–10 μl) were quenched on 3 mM filter pads (Whatman, GE Healthcare) presoaked with 5% trichloroacetic acid (TCA). The pads were washed thrice with 5% TCA and 90% ethanol at 4 °C and then dried. The amount of Leu-tRNA^Leu was then quantified using scintillation counting. Each reaction was performed in triplicate and analyzed using Kaleidagraph (for Km and kcat determinations) or GraphPad Prism software (for IC50 determination).

wt AgnB2 (LeuRS) [4] = target: T2, wt AgnB2 (LeuRS); assay: ATP/PPi exchange assay (amino acid activation), AgnB2; details: 28 °C, pH 7.4
Procedure: The formation of Leu-AMP by ATP/PPi exchange assays was performed as described earlier[23][50]. Briefly, the reaction buffer contained 50 mM HEPES buffer (pH 7.4), 20 mM KCl, 10 mM MgCl2, 500 μM L-leucine, 4 mM ATP, 1 mM tetrasodium pyrophosphate (NaPPi), 10 μCi/mmol [^32P] NaPPi and 1 μM bovine serum albumin (BSA). The reaction was initiated by addition of 1–4 nM of active enzyme and incubated at 28 °C. Aliquots (5 μl each) were collected over 30 min and quenched in a 10% charcoal slurry containing 0.5% HCl and 50 μl of 200 mM sodium pyrophosphate in 1 M HCl. Liquid scintillation counting was then used to measure the amount of [^32P]-PPi incorporation into ATP that was adsorbed onto the charcoal.

wt AgnB2 (LeuRS) [5] = target: T2, wt AgnB2 (LeuRS); assay: Isothermal titration calorimetry, wt AgnB2; type: binding, Agrobacterium radiobacter K84; details: ITC, ligand binding to AgnB2 alone, 28 °C, pH 7.4; read-out: Kd
Procedure: (§1) Typically, about 4–8 μM active protein solution and a 10-fold higher ligand concentration were prepared in buffer containing 50 mM HEPES (pH 7.4), 20 mM KCl 10 mM MgCl2 and 1 mM β-ME. The titrations were carried out in triplicate at 28 °C. The data was then analyzed using Origin software (version 7) and fitted to a one-site or a two-site binding model to obtain the binding affinity (Kd), stoichiometry (N) and enthalpy (ΔH) for each complex.

LeuRSAt [6] = target: T1, LeuRSAt; assay: Isothermal titration calorimetry, LeuRSAt; parameters: species or system A. tumefaciens; details: ITC, Leu-AMS binding to LeuRSAt
Procedure: as §1

[7] = aminoacylation, substrate, 28 °C

SMILES | Km (LeuRSAt [1]; ATP-PPi exchange, substrate) [µM] | kcat (LeuRSAt [1]; ATP-PPi exchange, substrate) [s⁻¹] | Km [2] [µM] | kcat [2] [s⁻¹] | Km (wt AgnB2 (LeuRS) [3]; [7]) [µM] | kcat (wt AgnB2 (LeuRS) [3]; [7]) [s⁻¹] | Km (wt AgnB2 (LeuRS) [4]; ATP-PPi exchange, substrate) [µM] | kcat (wt AgnB2 (LeuRS) [4]; ATP-PPi exchange, substrate) [s⁻¹] | inhibition of Leu-AMP formation (LeuRSAt [1]; 25 nM Leu-AMS, 1 nM enzyme) | Kd (wt AgnB2 (LeuRS) [5]) [nM] | Kd (LeuRSAt [6]) [nM] | inhibition of overall aminoacylation reaction (wt AgnB2 (LeuRS) [3]; 20 nM Leu-AMS, 2 nM wt AgnB2, 28 °C) | inhibition of amino acid activation (Leu-AMP formation) (wt AgnB2 (LeuRS) [4]; 25 nM Leu-AMS, 1 nM enzyme)
Nc1ncnc2c1ncn2[C@@H]1O[C@H](COP(=O)(O)OP(=O)(O)OP(=O)(O)O)[C@@H](O)[C@H]1O [ATP] | 357 ± 22 | 87 ± 1.5 | 396 ± 83 | 0.33 ± 0.02 | 95.4 ± 18.3 | 0.43 ± 0.02 | 1050 ± 140 | 67 ± 8.9 |  |  |  |  | 
CC(C)CC(N)C(=O)NS(=O)(=O)OCC1OC(n2cnc3c(N)ncnc32)C(O)C1O (stereo not drawn) [Leu-AMS, reference compound] |  |  |  |  |  |  |  |  | potently inhibits | 4.4 | 1.6 | potently inhibited | potently inhibits
CC(C)C[C@H](N)C(=O)O [Leucine] |  |  | 38 ± 3.2 | 0.38 ± 0.01 |  |  |  |  |  |  |  |  | 
